Changes are numbered by the printed parent chain.
Key:
Type in all cases: binding
[1] = biological target: T1, wild-type mALAS2 (murine erythroid 5-aminolevulinate synthase) (Mus musculus, UniProt P08680); assay: intrinsic protein fluorescence quenching titration
T1 sequence (P08680 79-587): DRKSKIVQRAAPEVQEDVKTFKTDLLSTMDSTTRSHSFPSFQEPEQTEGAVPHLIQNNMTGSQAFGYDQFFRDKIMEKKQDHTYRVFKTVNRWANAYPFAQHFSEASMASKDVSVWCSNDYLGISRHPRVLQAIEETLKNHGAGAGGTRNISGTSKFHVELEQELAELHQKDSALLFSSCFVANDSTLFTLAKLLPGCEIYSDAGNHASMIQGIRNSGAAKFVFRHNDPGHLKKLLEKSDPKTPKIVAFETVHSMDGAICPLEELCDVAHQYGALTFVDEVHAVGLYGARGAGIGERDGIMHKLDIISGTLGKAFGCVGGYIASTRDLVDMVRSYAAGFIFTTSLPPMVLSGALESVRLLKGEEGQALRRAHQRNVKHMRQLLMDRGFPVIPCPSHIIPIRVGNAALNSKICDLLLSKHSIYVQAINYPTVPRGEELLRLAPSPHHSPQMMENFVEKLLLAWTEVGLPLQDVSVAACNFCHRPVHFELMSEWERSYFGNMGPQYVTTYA

[2] = biological target: T2, wild-type mALAS2 (murine erythroid 5-aminolevulinate synthase) (Mus musculus, UniProt P08680, K299V); assay: intrinsic protein fluorescence quenching titration
T2 sequence (P08680 79-587 K299V): T1 sequence (P08680 79-587) with K221V

[3] = biological target: T1, wild-type mALAS2 (murine erythroid 5-aminolevulinate synthase); details: half-maximal protection; 50 mM phosphate pH 7.5, 10% glycerol, 18 °C; no glycine

Kd [1] [µM] | Kd [2] [µM] | K′ [3] [µM] | SMILES
302 ± 12 | 431 ± 17 | – | CC(C)(COP(=O)(O)OP(=O)(O)OC[C@H]1O[C@@H](n2cnc3c(N)ncnc32)[C@H](O)[C@@H]1OP(=O)(O)O)[C@@H](O)C(=O)NCCC(=O)NCCS [CoA]
297 ± 7 | 223 ± 8 | 261 ± 75 | CC(C)(COP(=O)(O)OP(=O)(O)OC[C@H]1O[C@@H](n2cnc3c(N)ncnc32)[C@H](O)[C@@H]1OP(=O)(O)O)[C@@H](O)C(=O)NCCC(=O)NCCSC(=O)CCC(=O)O [succinyl-CoA]

Source: publication PMC4615937 (FEBS Open Bio, 2015)
